# Results as given in patent US9908868B2, “Isoindolinone compounds as GPR119 modulators for the treatment of diabetes, obesity, dyslipidemia and related disorders” (SANOFI, priority 2014, dated 2018).
# Molecular target: T1, human GPR119 (Homo sapiens, UniProt Q8TDV5)
# T1 construct: expressed in transfected cells
# T1 sequence (Q8TDV5 1-335): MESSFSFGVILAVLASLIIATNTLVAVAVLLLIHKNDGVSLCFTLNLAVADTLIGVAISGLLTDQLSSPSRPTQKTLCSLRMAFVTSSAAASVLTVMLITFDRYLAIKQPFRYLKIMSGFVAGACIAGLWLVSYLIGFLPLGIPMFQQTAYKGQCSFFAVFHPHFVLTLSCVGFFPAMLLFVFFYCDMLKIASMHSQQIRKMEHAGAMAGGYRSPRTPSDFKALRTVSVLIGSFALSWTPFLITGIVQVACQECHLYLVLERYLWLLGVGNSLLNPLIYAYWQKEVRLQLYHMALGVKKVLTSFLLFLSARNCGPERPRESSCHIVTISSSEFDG
# Assay: Functional cellular assay measuring GPR119-mediated cAMP release (HTRF) in HEK-293 cells stably expressing recombinant human GPR119
# Assay type: cell-based
# Settings: cAMP response, cell line expressing human GPR119, 30 minutes at room temperature
# Summary of the method: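 HEK-293 cells stably expressing recombinant human GPR119, suspended at 400000 cells/mL in HBSS/20 mM HEPES/0.1% BSA/2 mM IBMX, exposed to compound for 30 minutes at room temperature. cAMP detected by HTRF (665/620 nm ratio) after 1 h with reagents in lysis buffer. EC50 taken as concentration giving 50% of maximal activation.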
row,SMILES,EC50
1,"O=C(O)CN1Cc2ccc(N3CC[C@@H](Oc4ccc(OCC5CC5)nc4)C3=O)cc2C1=O [Example 3-02, 2-[6-[(3R)-3-[[6-(cyclopropylmethoxy)-3-pyridyl]oxy]-2-oxo-pyrrolidin-1-yl]-1-oxo-isoindolin-2-yl]acetic acid]",0.443 µM
2,"O=C(O)CN1Cc2ccc(N3CC[C@@H](Oc4ccc(OCC(F)(F)F)nc4)C3=O)cc2C1=O [Example 3-05, 2-[1-oxo-6-[(3R)-2-oxo-3-[[6-(2,2,2-trifluoroethoxy)-3-pyridyl]oxy]pyrrolidin-1-yl]isoindolin-2-yl]acetic acid]",0.544 µM
3,"CN(C)C(=O)CN1Cc2ccc(N3CC[C@@H](Oc4ccc(OCC5CC5)nc4)C3=O)cc2C1=O [Example 1-39, 2-[6-[(3R)-3-[[6-(cyclopropylmethoxy)-3-pyridyl]oxy]-2-oxo-pyrrolidin-1-yl]-1-oxo-isoindolin-2-yl]-N,N-dimethyl-acetamide]",0.06 µM
4,"CN(C)C(=O)CN1Cc2ccc(N3CC[C@@H](Oc4ccc(C(=O)C5CC5)nc4)C3=O)cc2C1=O [Example 2-58, 2-[6-[(3R)-3-[[6-(cyclopropanecarbonyl)-3-pyridyl]oxy]-2-oxo-pyrrolidin-1-yl]-1-oxo-isoindolin-2-yl]-N,N-dimethyl-acetamide]",0.251 µM
5,"Cn1nnc(N2Cc3ccc(N4CC[C@@H](Oc5ccc(OCC6CC6)nc5)C4=O)cc3C2=O)n1 [Example 1-10, 6-[(3R)-3-[[6-(cyclopropylmethoxy)-3-pyridyl]oxy]-2-oxo-pyrrolidin-1-yl]-2-(2-methyltetrazol-5-yl)isoindolin-1-one]",0.267 µM
6,"CN(C)C(=O)CC1c2ccc(N3CC[C@@H](Oc4ccc(OCC5CC5)nc4)C3=O)cc2C(=O)N1C (stereo partly drawn) [Example 1-07, 2-[5-[(3R)-3-[[6-(cyclopropylmethoxy)-3-pyridyl]oxy]-2-oxo-pyrrolidin-1-yl]-2-methyl-3-oxo-isoindolin-1-yl]-N,N-dimethyl-acetamide]",1.9 µM
7,"CN(C)C(=O)CN1Cc2ccc(N3CC[C@@H](Oc4ccc(SC(F)(F)F)cc4)C3=O)cc2C1=O [Example 2-22, N,N-dimethyl-2-[1-oxo-6-[(3R)-2-oxo-3-[4-(trifluoromethylsulfanyl)phenoxy]pyrrolidin-1-yl]isoindolin-2-yl]acetamide]",0.041 µM
8,"O=C(O)CN1Cc2c(F)cc(N3CC[C@@H](Oc4ccc(OCC5CC5)nc4)C3=O)cc2C1=O [Example 3-01, 2-[6-[(3R)-3-[[6-(cyclopropylmethoxy)-3-pyridyl]oxy]-2-oxo-pyrrolidin-1-yl]-4-fluoro-1-oxo-isoindolin-2-yl]acetic acid]",1.05 µM
9,"Cc1nc(-c2ccc(O[C@@H]3CCN(c4ccc5c(c4)C(=O)N(CC(=O)N(C)C)C5)C3=O)cc2)no1 [Example 2-32, N,N-dimethyl-2-[6-[(3R)-3-[4-(5-methyl-1,2,4-oxadiazol-3-yl)phenoxy]-2-oxo-pyrrolidin-1-yl]-1-oxo-isoindolin-2-yl]acetamide]",0.268 µM
10,"CC1c2ccc(N3CC[C@@H](Oc4ccc(OCC5CC5)nc4)C3=O)cc2C(=O)N1CC(=O)N(C)C (stereo partly drawn) [Example 1-13, 2-[5-[(3R)-3-[[6-(cyclopropylmethoxy)-3-pyridyl]oxy]-2-oxo-pyrrolidin-1-yl]-1-methyl-3-oxo-isoindolin-2-yl]-N,N-dimethyl-acetamide]",0.237 µM
11,"CCOc1ccc(O[C@@H]2CCN(c3cc(F)c4c(c3)C(=O)N(CC(=O)OC)C4)C2=O)cn1 [Example 1-31, methyl 2-[6-[(3R)-3-[(6-ethoxy-3-pyridyl)oxy]-2-oxo-pyrrolidin-1-yl]-4-fluoro-1-oxo-isoindolin-2-yl]acetate]",0.065 µM
12,"CCOc1ccc(O[C@@H]2CCN(c3cc(F)c4c(c3)C(=O)N(CC(=O)N(CC)CC)C4)C2=O)cn1 [Example 4-14, 2-[6-[(3R)-3-[(6-ethoxy-3-pyridyl)oxy]-2-oxo-pyrrolidin-1-yl]-4-fluoro-1-oxo-isoindolin-2-yl]-N,N-diethyl-acetamide]",0.288 µM
13,"CN(C)C(=O)CN1Cc2ccc(N3CC[C@@H](Oc4ccc(C(=O)c5ccc(F)cc5)cc4)C3=O)cc2C1=O [Example 2-15, 2-[6-[(3R)-3-[4-(4-fluorobenzoyl)phenoxy]-2-oxo-pyrrolidin-1-yl]-1-oxo-isoindolin-2-yl]-N,N-dimethyl-acetamide]",0.066 µM
14,"CN(C)C(=O)Cn1c(=O)c2cc(N3CC[C@@H](Oc4ccc(OCC5CC5)nc4)C3=O)ccc2n1C [Example 1-27, 2-[5-[(3R)-3-[[6-(cyclopropylmethoxy)-3-pyridyl]oxy]-2-oxo-pyrrolidin-1-yl]-1-methyl-3-oxo-indazol-2-yl]-N,N-dimethyl-acetamide]",0.488 µM
15,"CCOc1ccc(O[C@@H]2CCN(c3cc(F)c4c(c3)C(=O)N(CC#N)C4)C2=O)cn1 [Example 5-01, 2-[6-[(3R)-3-[(6-ethoxy-3-pyridyl)oxy]-2-oxo-pyrrolidin-1-yl]-4-fluoro-1-oxo-isoindolin-2-yl]acetonitrile]",0.067 µM
16,"CN(C)C(=O)CN1Cc2ccc(N3CC[C@@H](Oc4ccc(Oc5ccc(F)cc5F)nc4)C3=O)cc2C1=O [Example 1-48, 2-[6-[(3R)-3-[[6-(2,4-difluorophenoxy)-3-pyridyl]oxy]-2-oxo-pyrrolidin-1-yl]-1-oxo-isoindolin-2-yl]-N,N-dimethyl-acetamide]",0.073 µM
17,"CN(C)C(=O)CN1Cc2ccc(N3CC[C@@H](Oc4ccc(N5CCOCC5)cc4)C3=O)cc2C1=O [Example 2-24, N,N-dimethyl-2-[6-[(3R)-3-(4-morpholinophenoxy)-2-oxo-pyrrolidin-1-yl]-1-oxo-isoindolin-2-yl]acetamide]",21 µM
18,"COCCNC(=O)CN1Cc2ccc(N3CC[C@@H](Oc4ccc(OCC5CC5)nc4)C3=O)cc2C1=O [Example 4-02, 2-[6-[(3R)-3-[[6-(cyclopropylmethoxy)-3-pyridyl]oxy]-2-oxo-pyrrolidin-1-yl]-1-oxo-isoindolin-2-yl]-N-(2-methoxyethyl)acetamide]",0.144 µM
19,"CN(C)C(=O)CN1Cc2ccc(N3CC[C@@H](Oc4ccc(NC5=NC(=O)CS5)cc4)C3=O)cc2C1=O [Example 2-33, N,N-dimethyl-2-[1-oxo-6-[(3R)-2-oxo-3-[4-[(4-oxothiazol-2-yl)amino]phenoxy]pyrrolidin-1-yl]isoindolin-2-yl]acetamide]",2.21 µM
20,"O=C(CN1Cc2ccc(N3CC[C@@H](Oc4ccc(OCC5CC5)nc4)C3=O)cc2C1=O)N1CCC(O)CC1 [Example 4-03, 6-[(3R)-3-[[6-(cyclopropylmethoxy)-3-pyridyl]oxy]-2-oxo-pyrrolidin-1-yl]-2-[2-(4-hydroxy-1-piperidyl)-2-oxo-ethyl]isoindolin-1-one]",0.206 µM
21,"CCOc1ccc(O[C@@H]2CCN(c3cc(F)c4c(c3)C(=O)N(CC(=O)N3CCCC3)C4)C2=O)cn1 [Example 4-17, 6-[(3R)-3-[(6-ethoxy-3-pyridyl)oxy]-2-oxo-pyrrolidin-1-yl]-4-fluoro-2-(2-oxo-2-pyrrolidin-1-yl-ethyl)isoindolin-1-one]",0.191 µM
